Key:
[1] = system: rats with chronic constriction injury (CCI); experiment: Sensitivity to noxious cold (4° C. water) in CCI animals with oligonucleotide infusion; assay type: in vivo, rat; details: at peak, control CCI 8.1±0.5 s
Procedure: Thermal sensitivity was assessed by measuring paw withdrawal latency (PWL, s) in response to a noxious thermal stimulus (Hargreaves' thermal stimulator, Linton Instrumentation, Diss, UK) directed to the hindpaw mid-plantar glabrous surface. Mechanical sensitivity was recorded as the paw withdrawal threshold (PWT, mN/mm^2) to calibrated von Frey filaments (Stoelting, Ill., US), as previously described^[39]. Sensitivity to noxious cold was assessed by placing animals in a waterbath with an aluminium floor containing 1 cm deep 4° C. water and counting the time the paw was held suspended over a 20 s period.
Antisense and mis-sense oligonucleotides were 22-mers with phosphorothioate bonds at the last two positions at 5′ and 3′ ends (MWG Biotech, Ebersberg, Germany). Antisense extended from base −10 to base +12 relative to the start of the open reading frame for the rat TRPM8 gene: 5′ C*T*CGAAGGACATCTTGCCGT*G*G 3′, where * represents phosphorothioate linkages. Mis-sense was designed with 4 inversions of C/G or A/T as appropriate at residues 3, 11, 14 and 22, preserving overall G/C content. BLAST searches of both oligonucleotides indicated no significant complementarity to any known gene sequence. […]

TRPM8 = experiment: Antisense knockdown of TRPM8, DRG immunoblots (TRPM8:GAPDH); assay type: in vivo, rat; details: for TRPM8:GAPDH ratio in DRG: intrathecal oligonucleotide infusion
Text: Antisense and mis-sense oligonucleotides were 22-mers with phosphorothioate bonds at the last two positions at 5′ and 3′ ends (MWG Biotech, Ebersberg, Germany). Antisense extended from base −10 to base +12 relative to the start of the open reading frame for the rat TRPM8 gene: 5′ C*T*CGAAGGACATCTTGCCGT*G*G 3′, where * represents phosphorothioate linkages. Mis-sense was designed with 4 inversions of C/G or A/T as appropriate at residues 3, 11, 14 and 22, preserving overall G/C content. BLAST searches of both oligonucleotides indicated no significant complementarity to any known gene sequence. 14-day or 7-day osmotic minipumps (for CCI experiments or naïve electrophysiology experiments respectively—Alzet Minipump, models 2002, 2001; Charles River, UK) containing oligonucleotides (1 μg/μl in sterile saline) were connected to canulae inserted under the dura of the spinal cord to level L5/6 and produced a predicted infusion rate of 0.5 μl/h. CCI surgery was performed at the same time as minipump implantation. Sensory tests were carried out to assess the time-course of behavioural sensitisation in animals which had also undergone a CCI injury. Icilin was applied topically rather than intrathecally so as to prevent any interference with the infusion canula. […]
Ipsilateral or contralateral L4-L6 dorsal root ganglia (DRG) were taken from CCI animals (n=6), and from […]. […] Blots were incubated with rabbit polyclonal antibodies to TRPM8 (either an antibody raised against TRPM8 residues 278-292 and 1090-1104 (human); 1:500; Abcam Ltd., Cambridge, UK or occasionally an antibody raised against TRPM8 residues 656-680 (rat); 1:100; Phoenix Peptides, Belmont, Calif., USA), a rabbit polyclonal antibody to TRPV1 (1:250, Chemicon International Ltd, Harrow, UK) or a mouse monoclonal antibody to glyceraldehyde-3-phosphate dehydrogenase (GAPDH, 1:750; Chemicon) and immunoreactive bands were detected by […] secondary antibody and enhanced chemiluminescence. Quantitative densitometry analysis of protein bands was performed using the ScanAnalysis (Elsevier) programme.

5′ C*T*CGAAGGACATCTTGCCGT*G*G 3′ (antisense CTCGAAGGACATCTTGCCGTGG; linkages s2 o17 s2 (s phosphorothioate, o phosphodiester), sugars by position and methylation of C not given here) [TRPM8 antisense, 22-mer with phosphorothioate bonds, base −10 to +12 of rat TRPM8 open reading frame]
elevation of the paw ipsilateral to nerve injury out of 4° C. water [1]: 7.6 ± 0.6 s | TRPM8:GAPDH ratio in DRG (TRPM8; contralateral to CCI): 14.9±2.1% | TRPM8:GAPDH ratio in DRG (TRPM8; ipsilateral to CCI): 19.8±2.2% | knockdown of the 128 kDa TRPM8 band in DRG (TRPM8; naïve rats, intrathecal delivery over 5 days): almost complete knockdown
